| SMILES | melting point |
| --- | --- |
| CC(C)N(C)CC1(C(F)(F)F)c2cc(Cl)ccc2Nc2ncccc21 (stereo not drawn) [No. 93] | 157 to 158 °C |
| CCN(CC)CC1(C(F)(F)F)c2cc(Cl)ccc2Nc2ncccc21 (stereo not drawn) [No. 94, 7-Chloro-5-(N,N-diethylaminomethyl)-5,10-dihydro-5-(trifluoromethyl)benzo[b][1,8]napthyridine] | 110 to 111 °C |
| Fc1ccc2c(c1)C(OCC1CC1)(C(F)F)c1cccnc1N2 (stereo not drawn) [No. 180, 7-Fluoro-5-cyclopropylmethoxy-5-difluoromethyl-5,10-dihydro-benzo[b][1,8]naphthyridine] | 137 to 138 °C |
| FC(F)C1(OCCC2CC2)c2cc(Cl)ccc2Nc2ncccc21 (stereo not drawn) [No. 181, 7-Chloro-5-(2-cyclopropyl-ethoxy)-5-difluoromethyl-5,10-dihydro-benzo[b][1,8]naphthyridine] | 148 to 149 °C |
| FC(F)C1(Cc2ccccn2)c2cc(Cl)ccc2Nc2ncccc21 (stereo not drawn) [No. 182, 7-Chloro-5-pyridin-2-ylmethyl-5-difluoromethyl-5,10-dihydro-benzo[b][1,8]naphthyridine] | 204 to 205 °C |
| [O-][n+]1cccc2c1Nc1ccc(Cl)cc1C2(OCC1CC1)C(F)F (stereo not drawn) [No. 184, 7-Chloro-5-cyclopropylmethoxy-5-difluoromethyl-5,10-dihydro-benzo[b][1,8]naphthyridine 1-oxide] | 185 to 186 °C |
| [O-][n+]1cccc2c1Nc1ccc(F)cc1C2(OCC1CC1)C(F)F (stereo not drawn) [No. 185, 7-Fluoro-5-cyclopropylmethoxy-5-difluoromethyl-5,10-dihydro-benzo[b][1,8]naphthyridine 1-oxide] | 166 to 167 °C |
| [O-][n+]1cccc2c1Nc1ccc(Cl)cc1C2(OCCC1CC1)C(F)F (stereo not drawn) [No. 186, 7—Chloro-5-(2-cyclopropyl-ethoxy)-5-difluoromethyl-5,10-dihydro-benzo[b][1,8]naphthyridine 1-oxide] | 175 to 176 °C |
| [O-][n+]1cccc2c1Nc1ccc(Cl)cc1C2(Cc1ccccn1)C(F)F (stereo not drawn) [No. 187, 7—Chloro-5-pyridin-2-ylmethyl-5-difluoromethyl-5,10-dihydro-benzo[b][1,8]naphthyridine 1-oxide] | 210 to 211 °C |
| [O-][n+]1cc(Cl)cc2c1Nc1ccc(Cl)cc1C2(OCC1CC1)C(F)F (stereo not drawn) [No. 188, 3,7-Dichloro-5-cyclopropylmethoxy-5-difluoromethyl-5,10-dihydro-benzo[b][1,8]naphthyridine 1-oxide] | 163 to 164 °C |
| [O-][n+]1cccc2c1Nc1ncc(Cl)cc1C2(OCC1CC1)C(F)(F)F (stereo not drawn) [No. 201, 3-Chloro-10-cyclopropylmethoxy-10-trifluoromethyl-9,10-dihydro-1,8,9-triaza-anthracene 8-oxide] | 68 to 69 °C |
| CC(C)COC1(C(F)(F)F)c2cccnc2Nc2ncc(Cl)cc21 (stereo not drawn) [No. 203, 3-Chloro-10-isobutoxy-10-trifluoromethyl-9,10-dihydro-1,8,9-triaza-anthracene] | 166 to 167 °C |

Source: patent US6593337B1, “Tricyclic compounds useful as HIV reverse transcriptase inhibitors” (Bristol-Myers Squibb Pharma Company, priority 1999, dated 2003)
